Molecules are shown by their SMILES. Read-outs that look alike come from different tables or passages of the source.

Series [1] has as its target T1, mTOR (Homo sapiens, UniProt P42345).
T1 construct: purchased Invitrogen
Kind of series: mTOR kinase inhibition assay (radiometric or LanthaScreen TR-FRET). It is filed as biochemical. As to conditions: read-out: mTORC IC50. A general note: Time-resolved FRET reads energy transfer from a long-lived donor to a nearby acceptor.
Protocol: The cross-activity or lack thereof of one or more compounds of the present invention against mTor can be measured according to any procedures known in the art or methods disclosed below.
The compounds described herein can be tested against recombinant mTOR (Invitrogen) in an assay containing 50 mM HEPES, pH 7.5, 1 mM EGTA, 10 mM MgCl2, 2.5 mM, 0.01% Tween, 10 μM ATP (2.5 μCi of μ-32P-ATP), and 3 μg/mL BSA. Rat recombinant PHAS-1/4EBP1 (Calbiochem; 2 mg/mL) is used as a substrate. Reactions are terminated by spotting onto nitrocellulose, which is washed with 1M NaCl/1% phosphoric acid (approximately 6 times, 5-10 minutes each). Sheets are dried and the transferred radioactivity quantitated by phosphorimaging.
For instance, one can use Invitrogen's LanthaScreen™ Kinase assay to test the inhibitors of mTOR disclosed herein. This assay is a time resolved FRET platform that measures the phosphorylation of GFP labeled 4EBP1 by mTOR kinase. The kinase reaction is performed in a white 384 well microtiter plate. The total reaction volume is 20 ul per well and the reaction buffer composition is 50 mM HEPES pH7.5, 0.01% Polysorbate 20, 1 mM EGTA, 10 mM MnCl2, and 2 mM DTT. In the first step, each well receives 2 ul of test compound in 20% dimethylsulphoxide resulting in a 2% DMSO final concentration. […] The plate is sealed and incubated for 1 hour at room temperature. […] The plate is sealed, incubated for 1 hour at room temperature, and then read on a plate reader set up for LanthaScreen™ TR-FRET. Data is analyzed and IC50s are generated using GraphPad Prism 5.

Series [2] deals with T2, PI3K α (p110α/p85α) (Homo sapiens, UniProt P42336).
T2 construct: purchased Upstate / Millipore Corporation
Briefly: PI 3-Kinase (human) HTRF assay, PI3K α. In kind it is biochemical. As to conditions: read-out: PI3K α IC50.
Protocol: Briefly, the assay is a time resolved FRET assay that indirectly measures PIP3 product formed by the activity of a PI3-K. The kinase reaction is performed in a microtiter plate (e.g., a 384 well microtiter plate). The total reaction volume is approximately 20 ul per well. In the first step, each well receives 2 ul of test compound in 20% dimethylsulphoxide resulting in a 2% DMSO final concentration. […] The plate is sealed and incubated for 15 minutes at room temperature. […] The plate is sealed and incubated for 1 hour at room temperature. The reaction is stopped by adding 5 ul of Stop Solution per well and then 5 ul of Detection Mix is added per well. The plate is sealed, incubated for 1 hour at room temperature, and then read on an appropriate plate reader. Data is analyzed and IC50s are generated using GraphPad Prism 5.

Series [3] concerns the target T3, PI3K β (p110β/p85α) (Homo sapiens, UniProt P42338).
T3 construct: purchased Upstate / Millipore Corporation
Briefly: PI 3-Kinase (human) HTRF assay, PI3K β. It is filed as biochemical. As to conditions: read-out: PI3K β IC50.

In series [4] the target is T4, PI3K γ (p110γ) (Homo sapiens, UniProt P48736).
T4 construct: purchased Upstate / Millipore Corporation
Kind of series: PI 3-Kinase (human) HTRF assay, PI3K γ. In kind it is biochemical. To be noted: read-out: PI3K γ IC50.

For series [5], the system named is PC3. Briefly: PC3 proliferation. As to conditions: Homo sapiens, PC-3; PC3 cell line (compounds before 438); read-out: PC3 proliferation (nM)*. It is filed as cell-based.
The test system of series [6] is T47D. Briefly: T47D proliferation. In kind it is cell-based. As to conditions: Homo sapiens; T47D cell line.
Series [7] addresses T5, PI3K δ (Homo sapiens, UniProt O00329).
T5 construct: purchased Upstate / Millipore Corporation
Kind of series: PI 3-Kinase (human) HTRF assay, PI3K δ. In kind it is biochemical. To be noted: read-out: PI3K δ IC50.

Series [8] relates to T47D. Kind of series: T47D proliferation. To be noted: Homo sapiens; T47D cell line. It is filed as cell-based. The source holds these as a separate data set.
Series [9] deals with MDA-MB-361. Briefly: MDA-MB-361 proliferation. In kind it is cell-based.
Series [10] deals with preclinical breast cancer model. Briefly: Preclinical breast cancer model, tumor weight / volume. As to conditions: 70 mg/kg Pan-PI3K inhibitor; 60 mg/kg compound A; FIG. 9 left panel. It is filed as in vivo.
In series [11] the test system is B cell function. Kind of series: TNP-Ficoll immunization, antibody production (FIG. 8). In kind it is in vivo. As to conditions: mice immunized with TNP-Ficoll, 7 days, 70 mg/kg GDC0941, 30, 60 or 120 mg/kg Compound A. The procedure: Mice were immunized with TNP-Ficoll and treated with 1) vehicle; 2) 70 mg/kg GDC0941; 3) 30 mg/kg Compound A; 4) 60 mg/kg Compound A; or 5) 120 mg/kg Compound A for 7 days. Antibody production was measured as a percentage of control group that were treated with vehicle.

Series [12] deals with MZB cells. Briefly: MZB cells in mouse spleen (FIG. 9, right panel). In kind it is in vivo. As to conditions: 70 mg/kg Pan-PI3K inhibitor compared to 60 mg/kg Compound A.
For series [13], the system named is MDA-MB-361 (PI3Kα/HER2 carcinoma) tumors. Briefly: In vivo efficacy in xenogenic mouse model of breast cancer. Also noted: species or system Nude mice. To be noted: 70 mg/kg, FIG. 9 left panel. The procedure: Blood glucose was monitored periodically following administration of treatment.
Treatment of tumors (MDA-MB-361) with compounds was discontinued on Day 30. Tumors were measured every 2-5 days.

In series [14] the test system is marginal zone B cells. Briefly: Marginal zone B cells in mouse spleen (FACS). In kind it is in vivo. To be noted: 70 mg/kg, spleens harvested 2 hrs after the last dose, FIG. 9.
Protocol: The effect of the compounds on the localization/viability of marginal zone B cells in the spleen is also evaluated at the conclusion of treatment.
Spleens were harvested 2 hrs after the last dose, processed and stained with appropriate antibodies (marginal zone B cell: B220+;CD23−;CD21hi) and analyzed for staining on GUAVA EasyCyte FACS machine using Guava Cytosoft 5.2 software.
The test system of series [15] is anti-TNP antibody production. Kind of series: TNP-Ficoll T-cell independent B-cell activation assay. It is filed as in vivo, mice. To be noted: 70 mg/kg GDC0941 for 7 days, FIG. 8. The procedure:
To test the effects of the compounds of the present invention in suppressing T cell independent antibody production, the TNP-Ficoll B-cell activation assay is used as described herein. Compounds of the present invention are dissolved in an appropriate vehicle (e.g. 5% 1-methyl-2-pyrrolidinone, 85% polyethylene glycol 400, 10% Solutor). Compounds are administered orally approximately 1 hr before TNP-Ficoll treatment to 4-10 week old mice. To study the effects of the compounds on B-cell activation, one set of mice are grouped according to the following table:
Four animals in group 1, and eight animals in groups 2 to 7 are euthanized in CO2 2 hours after the last compound administration on day 7. […]
Serum samples are analyzed for anti-TNP antibody titers by ELISA as described herein. […] HRP substrate (200 μl ABTS solution+30% H2O2+10 ml citrate buffer) is added to each well at 100 μl/well, incubated 2-20 minutes in the dark and the amount of anti-TNP IgG3 is determined spectrophotometrically at 405 nm. Similarly, anti-TNP IgM and total anti-TNP Ab are determined using anti-mouse IgM-HRP and anti-mouse Ig-HRP respectively.
Antibody production was measured using ELISA and plotted as a percentage of control group that were treated with vehicle.

T2 sequence (P42336 whole entry): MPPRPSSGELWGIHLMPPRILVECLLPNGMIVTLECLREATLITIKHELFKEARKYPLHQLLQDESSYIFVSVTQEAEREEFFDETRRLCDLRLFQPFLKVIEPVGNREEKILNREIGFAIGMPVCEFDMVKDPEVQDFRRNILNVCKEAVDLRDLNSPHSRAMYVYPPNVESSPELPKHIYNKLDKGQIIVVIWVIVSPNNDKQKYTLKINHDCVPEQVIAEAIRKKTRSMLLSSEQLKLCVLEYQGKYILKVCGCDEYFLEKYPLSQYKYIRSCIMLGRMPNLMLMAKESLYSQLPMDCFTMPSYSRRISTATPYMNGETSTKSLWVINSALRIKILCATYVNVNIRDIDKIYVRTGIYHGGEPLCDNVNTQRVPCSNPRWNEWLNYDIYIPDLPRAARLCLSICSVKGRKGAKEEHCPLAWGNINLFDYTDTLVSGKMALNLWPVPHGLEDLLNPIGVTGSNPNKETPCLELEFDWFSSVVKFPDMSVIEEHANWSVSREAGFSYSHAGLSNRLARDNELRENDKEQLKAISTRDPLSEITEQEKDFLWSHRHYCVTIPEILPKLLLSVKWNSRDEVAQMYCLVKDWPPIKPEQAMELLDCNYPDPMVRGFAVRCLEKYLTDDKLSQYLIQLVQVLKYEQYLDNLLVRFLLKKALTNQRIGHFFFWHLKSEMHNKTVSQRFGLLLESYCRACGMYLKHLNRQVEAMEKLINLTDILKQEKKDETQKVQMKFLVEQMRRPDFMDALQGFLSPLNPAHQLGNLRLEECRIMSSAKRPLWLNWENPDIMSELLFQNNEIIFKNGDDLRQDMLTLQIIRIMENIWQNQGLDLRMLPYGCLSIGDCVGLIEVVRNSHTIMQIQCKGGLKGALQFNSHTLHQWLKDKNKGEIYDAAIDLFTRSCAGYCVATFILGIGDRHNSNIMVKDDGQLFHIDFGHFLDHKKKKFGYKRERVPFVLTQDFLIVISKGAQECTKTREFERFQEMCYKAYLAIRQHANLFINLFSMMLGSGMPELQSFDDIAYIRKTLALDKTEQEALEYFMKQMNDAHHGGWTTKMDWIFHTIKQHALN
T2 sequence (P27986 whole entry partner): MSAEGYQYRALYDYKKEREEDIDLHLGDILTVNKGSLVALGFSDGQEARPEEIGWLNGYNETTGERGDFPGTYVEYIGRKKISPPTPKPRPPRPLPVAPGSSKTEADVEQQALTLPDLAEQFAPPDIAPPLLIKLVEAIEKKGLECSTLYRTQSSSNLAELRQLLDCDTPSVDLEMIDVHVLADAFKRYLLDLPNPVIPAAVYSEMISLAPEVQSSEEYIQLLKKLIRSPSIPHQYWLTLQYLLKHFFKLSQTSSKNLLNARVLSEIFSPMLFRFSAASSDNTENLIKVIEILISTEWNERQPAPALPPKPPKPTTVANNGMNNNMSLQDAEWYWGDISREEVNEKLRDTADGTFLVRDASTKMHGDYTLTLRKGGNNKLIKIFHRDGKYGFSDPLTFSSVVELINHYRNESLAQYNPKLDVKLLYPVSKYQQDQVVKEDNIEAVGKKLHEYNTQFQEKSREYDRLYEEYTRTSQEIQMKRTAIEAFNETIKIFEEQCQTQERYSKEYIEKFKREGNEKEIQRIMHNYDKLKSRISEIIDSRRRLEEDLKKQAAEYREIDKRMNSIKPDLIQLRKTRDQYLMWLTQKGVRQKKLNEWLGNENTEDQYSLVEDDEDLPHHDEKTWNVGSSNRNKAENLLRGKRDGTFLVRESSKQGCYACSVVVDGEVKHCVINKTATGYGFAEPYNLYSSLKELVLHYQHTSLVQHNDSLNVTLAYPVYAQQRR
T5 sequence (O00329 whole entry): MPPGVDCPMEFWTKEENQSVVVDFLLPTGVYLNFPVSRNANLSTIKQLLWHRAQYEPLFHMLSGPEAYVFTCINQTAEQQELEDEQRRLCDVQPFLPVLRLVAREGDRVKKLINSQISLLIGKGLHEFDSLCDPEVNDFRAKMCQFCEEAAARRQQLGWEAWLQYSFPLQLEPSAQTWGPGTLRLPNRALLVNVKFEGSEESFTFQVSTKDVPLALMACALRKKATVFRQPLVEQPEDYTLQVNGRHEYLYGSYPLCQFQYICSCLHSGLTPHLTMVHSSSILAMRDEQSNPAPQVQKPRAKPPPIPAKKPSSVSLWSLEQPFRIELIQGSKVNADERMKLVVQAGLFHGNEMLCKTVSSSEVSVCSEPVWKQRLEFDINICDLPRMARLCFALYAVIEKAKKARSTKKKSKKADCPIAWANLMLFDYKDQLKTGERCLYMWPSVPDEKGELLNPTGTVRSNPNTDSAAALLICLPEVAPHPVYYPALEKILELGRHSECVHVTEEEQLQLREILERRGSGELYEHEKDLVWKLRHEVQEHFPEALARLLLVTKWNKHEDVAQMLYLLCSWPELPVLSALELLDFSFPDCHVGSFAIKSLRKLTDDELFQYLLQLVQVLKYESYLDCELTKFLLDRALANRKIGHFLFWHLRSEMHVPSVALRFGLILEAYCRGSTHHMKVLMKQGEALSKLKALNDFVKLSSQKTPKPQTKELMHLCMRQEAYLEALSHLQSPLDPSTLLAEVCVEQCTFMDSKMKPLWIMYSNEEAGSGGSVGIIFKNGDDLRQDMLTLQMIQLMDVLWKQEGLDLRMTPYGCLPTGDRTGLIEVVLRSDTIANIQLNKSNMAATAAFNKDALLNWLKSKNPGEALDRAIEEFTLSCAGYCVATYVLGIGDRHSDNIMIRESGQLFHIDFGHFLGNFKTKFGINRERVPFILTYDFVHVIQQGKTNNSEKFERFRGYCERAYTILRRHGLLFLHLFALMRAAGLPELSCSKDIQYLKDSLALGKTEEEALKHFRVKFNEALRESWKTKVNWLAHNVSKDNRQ
T5 sequence (P27986 whole entry partner): as the sequence (P27986 whole entry partner) above
T4 sequence (P48736 whole entry): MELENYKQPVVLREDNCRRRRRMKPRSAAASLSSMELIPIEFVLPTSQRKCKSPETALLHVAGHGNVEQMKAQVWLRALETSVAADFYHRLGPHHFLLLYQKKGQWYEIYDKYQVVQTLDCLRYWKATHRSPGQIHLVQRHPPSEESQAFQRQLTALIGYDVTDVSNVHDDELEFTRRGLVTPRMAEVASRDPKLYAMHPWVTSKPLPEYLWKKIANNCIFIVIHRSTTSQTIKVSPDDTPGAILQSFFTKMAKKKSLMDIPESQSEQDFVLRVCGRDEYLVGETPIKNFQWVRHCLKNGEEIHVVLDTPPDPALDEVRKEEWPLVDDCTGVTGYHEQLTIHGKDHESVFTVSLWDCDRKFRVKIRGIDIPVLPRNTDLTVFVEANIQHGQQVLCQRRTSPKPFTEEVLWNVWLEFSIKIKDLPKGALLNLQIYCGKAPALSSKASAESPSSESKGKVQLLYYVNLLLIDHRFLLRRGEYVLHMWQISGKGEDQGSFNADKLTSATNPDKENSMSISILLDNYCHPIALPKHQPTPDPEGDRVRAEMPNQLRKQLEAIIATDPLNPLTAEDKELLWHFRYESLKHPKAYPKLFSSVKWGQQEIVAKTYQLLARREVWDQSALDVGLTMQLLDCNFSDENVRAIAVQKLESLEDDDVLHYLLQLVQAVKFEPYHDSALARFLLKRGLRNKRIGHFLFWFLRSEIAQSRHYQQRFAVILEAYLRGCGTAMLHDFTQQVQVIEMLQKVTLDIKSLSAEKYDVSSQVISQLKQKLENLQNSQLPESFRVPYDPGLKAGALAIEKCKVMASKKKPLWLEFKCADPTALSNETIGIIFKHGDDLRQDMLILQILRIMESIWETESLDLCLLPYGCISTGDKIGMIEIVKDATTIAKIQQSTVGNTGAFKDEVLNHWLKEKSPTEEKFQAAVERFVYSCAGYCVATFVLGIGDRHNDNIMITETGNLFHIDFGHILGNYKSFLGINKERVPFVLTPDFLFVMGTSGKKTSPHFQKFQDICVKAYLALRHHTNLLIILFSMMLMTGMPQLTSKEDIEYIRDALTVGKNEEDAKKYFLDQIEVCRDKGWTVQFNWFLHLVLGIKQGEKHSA
T3 sequence (P42338 whole entry): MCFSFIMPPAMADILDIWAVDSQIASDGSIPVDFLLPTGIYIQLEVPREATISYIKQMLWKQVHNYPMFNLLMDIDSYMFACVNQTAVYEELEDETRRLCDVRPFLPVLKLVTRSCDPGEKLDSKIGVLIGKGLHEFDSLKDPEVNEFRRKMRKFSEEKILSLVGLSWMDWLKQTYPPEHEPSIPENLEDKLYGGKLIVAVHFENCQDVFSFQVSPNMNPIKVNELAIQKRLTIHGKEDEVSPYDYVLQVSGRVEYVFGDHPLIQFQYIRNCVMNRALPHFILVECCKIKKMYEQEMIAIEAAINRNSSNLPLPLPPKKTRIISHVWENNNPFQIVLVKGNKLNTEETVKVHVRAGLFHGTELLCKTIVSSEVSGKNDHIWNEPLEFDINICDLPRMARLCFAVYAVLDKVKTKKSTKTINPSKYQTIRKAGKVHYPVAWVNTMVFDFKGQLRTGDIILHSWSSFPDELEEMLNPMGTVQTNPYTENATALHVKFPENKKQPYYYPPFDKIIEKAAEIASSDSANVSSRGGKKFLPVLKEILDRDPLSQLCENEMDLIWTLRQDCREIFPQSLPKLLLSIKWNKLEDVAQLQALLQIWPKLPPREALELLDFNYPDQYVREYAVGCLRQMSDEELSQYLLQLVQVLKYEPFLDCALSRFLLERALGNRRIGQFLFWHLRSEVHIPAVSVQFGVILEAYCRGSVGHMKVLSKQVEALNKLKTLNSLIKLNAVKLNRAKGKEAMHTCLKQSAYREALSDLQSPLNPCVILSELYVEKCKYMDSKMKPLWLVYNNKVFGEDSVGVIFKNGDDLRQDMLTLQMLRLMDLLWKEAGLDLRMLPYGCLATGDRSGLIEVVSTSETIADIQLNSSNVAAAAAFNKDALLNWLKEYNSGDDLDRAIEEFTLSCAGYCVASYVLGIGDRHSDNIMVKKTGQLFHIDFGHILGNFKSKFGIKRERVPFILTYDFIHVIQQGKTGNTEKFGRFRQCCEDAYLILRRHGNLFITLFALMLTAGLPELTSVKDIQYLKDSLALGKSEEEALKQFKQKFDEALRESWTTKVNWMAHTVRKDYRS
T3 sequence (P27986 whole entry partner): as the sequence (P27986 whole entry partner) above

For `Nc1nc2cc(-c3ccc4ncc(-c5ccncc5)n4n3)ccc2o1` [Compound 10], the IC50 was < 1 µM in series [1]; < 0.1 µM in series [2]; < 1 µM in [3]; < 0.1 µM in [4]; < 1000 nM in series [5]; < 1 µM in [6].
`Nc1nc2cc(-c3ccc4nnc(C(=O)N5CCOCC5)n4c3)ccc2o1` [Compound 282]: the IC50 in series [2], in [3], in series [4], in series [7] and in series [8] was > 10 µM each time.
Take `COc1ncc(-c2ccc3ncc(C(=O)N4CCOCC4)n3c2)cc1NS(=O)(=O)c1cccnc1` [Compound 462]: the IC50 in series [2] was < 0.1 µM; in series [3] it was < 0.1 µM; in [4], < 0.1 µM; in series [7], < 0.1 µM; in series [9] (Homo sapiens, MDA-MB-361, Starting with compound 438, proliferation data was obtained using an MDA-MB-361 cell line, read-out: PC3 proliferation (nM)*) it was < 1000 nM.
Regarding `Nc1nc2cc(-c3ccc4ncc(N5CCNC(=O)C5)cc4n3)ccc2o1` [Compound 580], the IC50 was < 0.1 µM in [2] (Table 4 (PI3K α inhibitors)); < 1 µM in series [3] (Table 4 (PI3K α inhibitors)); < 0.1 µM in [4] (Table 4 (PI3K α inhibitors)); < 10 µM in [7] (Table 4 (PI3K α inhibitors)); < 1000 nM in [9] (Homo sapiens, MDA-MB-361, Table 4 (PI3K α inhibitors), MDA-MB-361, read-out: MDA-MB-361 proliferation (nM)*).
As to `C[C@H]1CN(C2CN(c3cnc4ccc(-c5ccc6oc(N)nc6c5)nc4n3)C2)CCN1C` [Compound 606], the IC50 is > 10 µM in series [1] (Table 4 (PI3K α inhibitors)); < 0.1 µM in [2] (Table 4 (PI3K α inhibitors)); < 10 µM in series [3] (Table 4 (PI3K α inhibitors)); < 10 µM in series [4] (Table 4 (PI3K α inhibitors)); < 1 µM in series [7] (Table 4 (PI3K α inhibitors)); < 1000 nM in series [9] (Table 4 (PI3K α inhibitors), MDA-MB-361, read-out: MDA-MB-361 proliferation (nM)*).
Consider `CS(=O)(=O)N1CCN(Cc2cc3nc(-c4cccc5[nH]ncc45)nc(N4CCOCC4)c3s2)CC1` [Pan-PI3K inhibitor, reference compound], for which the “tumor weight of a breast cancer model” value in series [10] was “reduction in tumor weight”. The “B cell function in vivo (antibody production as percentage of vehicle control)” value in [11] was “blocks B cell function in vivo”. Further, the “presence of MZB cells in mouse spleen” value in series [12] and in series [14] was “reduced presence of MZB cells” each time. Besides, the tumor weight entry in [13] is on record as “reduction in tumor weight”. In series [15], the “B cell function in vivo (antibody production, ELISA)” value was “blocks B cell function in vivo”.

The record behind these values is US20150087627A1, “COMBINATION OF KINASE INHIBITORS AND USES THEREOF” (Intellikine LLC, priority 2011, published 2015).
